Test results reported in US8894993B2, “Mitochondria-targeted antioxidants” (Natreon Inc., priority 2006, dated 2014).
Values belong to the compound of their own block, whether it stands above or below them.

Tests used:
[1] = Stability of reduced CoQ10 (CoQH2) by 3,8-(OH)2-DBP at different pH, HPLC; type: physicochemical; settings: for Reduced CoQ10 remaining in control: no DBP
Procedure: Two mg of solid CoQ10 (SRL, India), in an airtight vial was dissolved in 1 ml of methanol. After thorough vortexing, 5 mg of solid NaBH4 (Merck India) was added, 1 mg at a time, to the yellow colored solution of CoQ10 in methanol and kept in an ice-bath for a few minutes. The vial was kept shut to avoid contact with air but opened occasionally to avoid generation of pressure inside due to accumulation of hydrogen. After the reduction reaction, a clear colorless solution was obtained to which methanolic solution of 3,8-(OH)2-DBP with a concentration of 1 mg/ml (>90% pure) was added in a ratio of 1:1 to obtain a final concentration of the mixture—reduced CoQ10 […] DBP 0.5 mg/ml. This solution was analyzed by HPLC for reduced CoQ10 content at different time intervals. A control was prepared in similar fashion except that no DBP was added. The pH of the solutions was determined to be 8 using pH paper. To obtain solutions of reduced CoQ10 with pH 7 and pH 3, aliquots of concentrated HCl were added to the methanolic solution of reduced CoQ10 at pH 8. Afterwards, a solution of DBP was added and analysis by HPLC at different time intervals was conducted, as before.
(§1) Mobile phase—Methanol:Acetonitrile:Ethanol 30:30:40
Detection—PDA 290 nm for reduced CoQ10

[2] = as above; type: physicochemical
[3] = Inhibition of CoQ-CoQH2 aberrant metabolite formation during red-ox recycling, HPLC; type: physicochemical; settings: in vitro
Procedure: Methanolic solution of coenzyme Q10 (1 mg/ml) was reduced by NaBH4 to pH 8 when the yellow solution became colorless. About 1 mg of 3,8-(OH)2-DBP was added to the solution and the mixture was analyzed by HPLC at different time intervals (0-80 min). A control CoQ10, without 3,8-(OH)2-DBP, was prepared similarly and analyzed at different time intervals (0-80 min).
Column—NovaPak RP C18 [250×4 mm]
as §1
(§2) Detection—PDA 275 nm for CoQ10
Reduced CoQ10 (CoQH2) has a tendency to rapidly autoxidize in the presence of air. […] The aberrant metabolites increased rapidly with time (Table 10).

[4] = test system: stress-induced lipid peroxidation of mouse brain; experiment: Stress-induced lipid peroxidation of mouse brain (thiobarbituric acid reaction); type: in vivo, Swiss albino mice; settings: oral each 5 mg/Kg b.w. per day for 5 days, hypoxic stress, control 1.169
Procedure: (§3) Swiss albino mice (20±g) were fed orally with—(a) 3,8-(OH)2-DBP; (b) CoQ10; (c) a combination of 3,8-(OH)2-DBP and CoQ10 and (d) 3,8-(OH)2-DBP and CoQ10 in a clathrated form with fusoms (each 5 mg/Kg b.w.), per day, for 5 days. The animals were subjected to hypoxic stress for 1 hour each day for 3 days from the 3rd day of the experiment. After the stipulated time-period, brain and liver of the animals were collected and mitochondria from the liver were separated as described previously (Liu Y, Deng F, Zhao R and Qu S, Chemosphere, 40(8):851-854, 2000). Lipid peroxidation in brain and liver-mitochondria was estimated by the method of Ohkawa et al. (Ohkawa H, Ohishi N and Yagi K, Assay for lipid peroxides in animal tissues by thiobarbituric acid reaction. Anal. Biochem., 95:351-358, 1979).

[5] = test system: stress-induced lipid peroxidation of mouse liver mitochondria; experiment: Stress-induced lipid peroxidation of mouse liver mitochondria (thiobarbituric acid reaction); type: in vivo, Swiss albino mice; settings: oral each 5 mg/Kg b.w. per day for 5 days, hypoxic stress, control 0.495
Procedure: as §3

[6] = Coenzyme Q in mice blood plasma and organs after oral feeding, HPLC; type: in vivo, Swiss albino mice; settings: oral each 5 mg/Kg b.w. per day for 5 days
Procedure: One year old caged stressed Sprague-Dawley rats (250-270 gms) were fed the following, individually or in combination after suspension in 0.8% carboxymethyl cellulose: CoQ10 (5 mg/Kg b.w./day) and 3,8-(OH)2-DBP (5 mg/Kg b.w./day) for 5 days. Blood was collected by puncture of the retro-orbital plexus. The plasma was separated by centrifugation, extracted with methanol and subjected to HPLC. In another experiment, Swiss albino mice (20±2 g) were fed orally with—(a) 3,8-(OH)2-DBP; (b) CoQ10; (c) a combination of 3,8-(OH)2-DBP and CoQ10 and (d) 3,8-(OH)2-DBP and CoQ10 in a clathrated form with Shilajit-fusoms (each 5 mg/Kg b.w.), per day, for 5 days. The animals were subjected to hypoxic stress for 1 hour each day for 3 days from the 3rd day of the experiment. After the stipulated time-period, the content of CoQ10 and their conjugates with DBP were estimated in heart, kidney, liver (in wet weight basis) and in blood, by HPLC, after proper extraction from the tissues according to the procedure depicted in the literature (Rousseau, G and Varin, F, Determination of Ubiquinone-9 and 10 levels in rat tissues and blood by High Performance Liquid Chromatography with Ultraviolet detection. J. Chromat. Sci., 36(5): 247-252, 1998).
Column—RP C18 Xterra [250×4 mm]
as §1, §2
Bioavailability was more when CoQ10 and 3,8-(OH)2-DBP using the fulvic acid system. A systemic increment of CoQ10 was also observed in mice blood plasma and a few organs upon oral feeding of this formulation. The extent of the increment of CoQ10 was more when CoQ10 and 3,8-(OH)2-DBP were targeted to mitochondria using the fulvic acid delivery system (Table 5). A similar trend in the increment was also observed in the case of CoQ10-DBP conjugates when the fulvic acid system was used. […] Thus, concurrent supplementation of CoQ10 and 3,8-(OH)2-DBP [or 3-OH-DBP, which is systemically converted into 3,8-(OH)2-DBP] using a fulvic acid delivery system would efficiently perform their targeting to mitochondria. This can be regarded as effective therapeutic strategy against stress-induced oxidative damage of cells and DNA damage due to old-age.

[7] = DBP products in mice liver mitochondria before and after DBPs treatment, HPTLC; type: in vivo, Swiss Albino mice; settings: one hour after i.p. 4:1 mixture of 3,8-(OH)2-DBP and 3-OH-DBP 20 mg/Kg
Procedure: Mitochondria were isolated from heart and liver of chicken, goat and mice following a published procedure (Liu Y, Deng F, Zhao R and Qu S, Chemosphere, 40(8):851-854, 2000). […] The tissue was cut into small pieces, homogenized and centrifuged at 900 g for one minute. The supernatant was again centrifuged twice, for 20 minutes each time at 900 g. The sediment at each step was discarded. The clear supernatant was centrifuged twice at 12,000 g, 20 minutes each time, to form pellets of a mitochondria-enriched fraction. The fraction was divided into two parts. One part was resuspended in a measured volume of distilled water and sonicated (10 min×2). […] The two extracts were subjected to comprehensive HPTLC and HPLC analyses for detection and quantitation of DBPs and their equivalents. […] One hour after administration the animals were sacrificed and mitochondria from liver were isolated and analyzed as described for Example 6. […] Mobile Phase—Chloroform:Methanol 90:10 Sample application—CAMAG LINOMAT 5 (Automated applicator) Detection—240 nm (CAMAG TLC SCANNER 3) 3-OH-DBP and 3,8-(OH)2-DBP (and their conjugates) were detected in mitochondria of control mice by HPTLC. Administration of DBPs to the animals increased the amount of DBPs and its products in mitochondria as detected by using authentic markers of the two DBPs (Table 2).

Reduced CoQ10 remaining in control ([1]; pH 3, 0 hour): 100.00%
Reduced CoQ10 remaining in control ([1]; pH 3, 48 hour): 57.25%
Reduced CoQ10 remaining in control ([1]; pH 3, 72 hour): 61.95%
Reduced CoQ10 remaining in control ([1]; pH 7, 0 hour): 100.00%
Reduced CoQ10 remaining in control ([1]; pH 7, 48 hour): 7.73%
Reduced CoQ10 remaining in control ([1]; pH 7, 72 hour): 3.70%
Reduced CoQ10 remaining in control ([1]; pH 8, 0 min, methanol): 100.00%
Reduced CoQ10 remaining in control ([1]; pH 8, 40 min, methanol): 79.18%
Reduced CoQ10 remaining in control ([1]; pH 8, 60 min, methanol): 54.09%
Reduced CoQ10 remaining in control ([1]; pH 8, 80 min, methanol): 33.17%
Reduced CoQ10 remaining in control ([1]; pH 8, 100 min, methanol): 20.87%
Relative percentage of aberrant metabolites in absence of 3,8-(OH)2-DBP ([3]; pH 8, 0 minutes): 0%
Relative percentage of aberrant metabolites in absence of 3,8-(OH)2-DBP ([3]; pH 8, 40 minutes): 93%
Relative percentage of aberrant metabolites in absence of 3,8-(OH)2-DBP ([3]; pH 8, 80 minutes): 96%
SMILES: COc1c(O)c(C)c(C/C=C(\C)CC/C=C(\C)CC/C=C(\C)CC/C=C(\C)CC/C=C(\C)CC/C=C(\C)CC/C=C(\C)CC/C=C(\C)CC/C=C(\C)CCC=C(C)C)c(O)c1OC [Reduced CoQ10, reference compound]
Regenerated CoQ10 in absence of 3,8-(OH)2-DBP ([1]; autoxidation of CoQH2, pH 8, 0 min): 0 µg/mL
Regenerated CoQ10 in absence of 3,8-(OH)2-DBP ([1]; autoxidation of CoQH2, pH 8, 60 min): 184.68 µg/mL
Regenerated CoQ10 in absence of 3,8-(OH)2-DBP ([1]; autoxidation of CoQH2, pH 8, 80 min): 202.28 µg/mL
Regenerated CoQ10 in absence of 3,8-(OH)2-DBP ([1]; autoxidation of CoQH2, pH 8, 100 min): 109.23 µg/mL
Regenerated CoQ10 in absence of 3,8-(OH)2-DBP ([2]; autoxidation of CoQH2, pH 8, 20 min): 5.49 µg/mL
Regenerated CoQ10 in absence of 3,8-(OH)2-DBP ([2]; autoxidation of CoQH2, pH 8, 40 min): 72.98 µg/mL

concentration at 5 days ([6]; Swiss albino, mouse, blood): 810 nM
Coenzyme Q: Heart ([6]; wet weight): 35.69 nmol/gm
Coenzyme Q: Kidney ([6]; wet weight): 16.51 nmol/gm
Coenzyme Q: Liver ([6]; wet weight): 19.41 nmol/gm
SMILES: COC1=C(OC)C(=O)C(C/C=C(\C)CC/C=C(\C)CC/C=C(\C)CC/C=C(\C)CC/C=C(\C)CC/C=C(\C)CC/C=C(\C)CC/C=C(\C)CC/C=C(\C)CCC=C(C)C)=C(C)C1=O [CoQ10]
OD Values at 532 nm (lipid peroxidation) [4]: 1.147
OD Values at 532 nm (lipid peroxidation) [5]: 0.467

SMILES: O=c1oc2cc(O)ccc2c2cc(-c3cc4c(cc3O)c(=O)oc3cc(O)ccc34)c(O)cc12 [3,8-(OH)2-DBP-dimer, 3,3′,8,8′-tetrahydroxy-9,9′-bis-dibenzo-α-pyrone]
Amount in mitochondria after DBP treatment [7]: 28.6 nmol/gm wet wt
